What was measured:
KG-1 = experiment: EC50 determination in cancer cell lines; type: cell-based; conditions: Homo sapiens, 72 h
Method in brief: (§1)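 Absorbance-based outgrowth readout after three days of treatment: an MTS tetrazolium reagent for HepG2 and SK-MEL-28, SRB staining for KG-1 and MOLM-14. EC50 was defined as the dose that lowers absorbance to half of the vehicle-treated signal and was averaged over at least two independent runs.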

MV4-11 = experiment: EC50 determination in cancer cell lines; type: cell-based; conditions: Homo sapiens, 72 h
Method in brief: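 Treatment lasts 72 h at a fixed vehicle content of DMSO or H2O. The readout is MTS for adherent cells and SRB for suspension cells. Each EC50 is the concentration halving absorbance relative to vehicle.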

SK-MEL-28 = experiment: EC50 determination in cancer cell lines; type: cell-based; conditions: Homo sapiens, 72 h
Method in brief: as §1

MOLM-14 = experiment: EC50 determination in cancer cell lines; type: cell-based; conditions: Homo sapiens, 72 h
Method in brief: as §1

[1] = system: ALDH+ cancer stem cells (CSC) in MOLM-14 cell line; experiment: Aldefluor kit assay, ALDH+ compartment analysis; type: cell-based, human; conditions: for Activity against CSCs in Aldefluor™ assay (proportion of CSCs) / Aldefluor™ positive CSCs (% of control): MOLM-14; for Activity against CSCs in Aldefluor™ assay (proportion of CSCs): dose dependent, Cytarabine up to 3-fold its EC50; for Aldefluor positive CSCs (% of control): MOLM-14 cell line, 72 h incubation; for Aldefluor™ positive CSCs (% of control): 72 h
Excerpt: Analysis of the of aldehyde dehydrogenase (ALDH) compartment and high activity level of aldehyde dehydrogenase activity (ALDH+) was used to detect tumor initiating cells (cancer stem cells, CSC) population. The Aldefluor™ kit assay (StemCell Technologies) allowed to assess the activity of drugs on CSC cells like in aa MOLM-14 acute myeloid leukemia cell line population. The Aldefluor™ kit assay was used according to the procedure described by the manufacturer. Briefly, MOLM-14 cell line was cultured in RPMI-1640 Medium supplemented with 10% v/v Fetal Bovine Serum (FBS), 1% Penicillin-Streptomycin and maintained at 37° C. with 5% CO2. 5·10^5 cells were used in this assay. Each compound was added at different concentrations (see table 13 and 14), and cell cultures were incubated for 72 h. Vehicle (H2O) was used as a control, and all compounds were tested in a constant percentage of vehicle. Cells obtained from cell culture were incubated for 45 minutes at 37° C. with Aldefluor™ buffer assay containing the Bodipy™-aminoacetaldehyde (BAAA), a fluorescent ALDH aldehyde substrate. ALDH converts the fluorescent substrate BAAA to the Bodipy™-aminoacetic acid (BAA) which is retained in the cell. An active efflux inhibitor is present in the Adelfluor™ assay buffer in order to avoid the active efflux from the cell of the substrate product ALDH dependent converted BAA. The fluorescent signal is directly proportional to the ALDH activity in the cells and is measured by flow cytometry. A negative control is used to measure the background fluorescence level. For such purpose, 4-(N,N-diethylamino)-benzaldehyde (DEAB) was used as selective ALDH inhibitor. A viability cell count was performed using LIVE/DEAD® Fixable Far Red Dead Cell Stain Kit (Invitrogen). The experimental data are analyzed using a computer program, Graphpad Prism (GraphPad Software, Inc. La Jolla, Calif.) and EC50 values were determined as the dose of compound required to reduce absorbance values to 50% of the signal obtained for vehicle treated cell cultures.

Question: How did the EC50 (KG-1) turn out when CC(C)(C)NC1CCN(c2cc(-c3ccc(Cl)cc3)nc3ccccc23)CC1.Cl.Cl [XII-4, 2-(4-chloro-phenyl)-4-(4-N-tert-butylamino-piperidin-1-yl)quinoline dihydrochloride] was run?
Answer: 4 µM

Question: And the EC50 (MV4-11)?
Answer: 2 µM

Question: And the EC50 (SK-MEL-28)?
Answer: 3 µM

Question: And the EC50 (MOLM-14)?
Answer: 3 µM

Question: How did the EC50 (KG-1) turn out when Cc1ccc(-c2cc(N3CCC(NC(C)(C)C)CC3)c3ccccc3n2)cc1.Cl.Cl [XIII-8, 2-(4-methyl-phenyl)-4-(4-N-tert-butylamino-piperidin-1-yl)quinoline dihydrochloride] was run?
Answer: 9 µM

Question: What about the EC50 (MV4-11) of the same molecule?
Answer: 2 µM

Question: And the EC50 (SK-MEL-28)?
Answer: 5 µM

Question: And the EC50 (MOLM-14)?
Answer: 3 µM

Question: And the “Activity against CSCs in Aldefluor™ assay (proportion of CSCs)” value [1]?
Answer: reduced the proportion of CSCs

Question: And the “Aldefluor positive CSCs (% of control)” value ([1]; 5 μM)?
Answer: 84 % of control

Question: And the “Aldefluor positive CSCs (% of control)” value ([1]; 10 μM)?
Answer: 83 % of control

Question: And the “Aldefluor positive CSCs (% of control)” value ([1]; 20 μM)?
Answer: 58 % of control

Question: And the “Aldefluor positive CSCs (% of control)” value ([1]; 40 μM)?
Answer: 23 % of control

Question: With CCN(CC)C1CCN(C(C)c2cc(-c3ccccc3)nc3ccccc23)CC1.Cl.Cl (centres unmarked) [XIX-3, 2-phenyl-4-{1-[4-(N,N-diethylamino)piperidin-1-yl]-eth-1-yl}quinoline dihydrochloride] as the molecule, how does the EC50 (KG-1) read?
Answer: 14 µM

Question: What about the EC50 (MV4-11) of the same molecule?
Answer: 9 µM

Question: And the EC50 (SK-MEL-28)?
Answer: 6 µM

Question: And the EC50 (MOLM-14)?
Answer: 11 µM

Question: And the “Aldefluor™ positive CSCs (% of control)” value ([1]; 5 μM)?
Answer: 86 % of control

Question: And the “Aldefluor™ positive CSCs (% of control)” value ([1]; 10 μM)?
Answer: 66 % of control

Question: What about the “Aldefluor™ positive CSCs (% of control)” value ([1]; 20 μM) of the same molecule?
Answer: 42 % of control

Question: What about the “Aldefluor™ positive CSCs (% of control)” value ([1]; 40 μM) of the same molecule?
Answer: 25 % of control

Question: And the “Activity against CSCs in Aldefluor™ assay (proportion of CSCs)” value [1]?
Answer: reduced the proportion of CSCs

Question: CCN(CC)C1CCN(C(C)c2cc(-c3ccc4ccccc4c3)nc3ccccc23)CC1.Cl.Cl (centres unmarked) [XXIV-3, 2-(2-naphtyl)-4-{1-[4-(N,N-diethylamino)-piperidin-1-yl]-eth-1-yl}quinoline dihydrochloride] was tested. Which EC50 (KG-1) did it give?
Answer: 4 µM

Question: And the EC50 (MV4-11)?
Answer: 3 µM

Question: And the EC50 (SK-MEL-28)?
Answer: 3 µM

Question: What about the EC50 (MOLM-14) of the same molecule?
Answer: 4 µM
